Assay results reported in patent publication US20210179636A1, “ANTIBACTERIAL COMPOUNDS” (priority 2016, published 2021).
Values after ≈ are worked out from the molar mass of the structure shown. Like-named read-outs stand apart in the source and are kept apart here.

What was measured:
[1] = tested on: Pseudomonas aeruginosa ATCC 27853; experiment: MIC, broth microdilution (CLSI); format: cell-based; conditions: P. aeruginosa ATCC 27853, 16-20 h, mode of three experiments
[2] = tested on: Enterobacter cloacae NCTC 13406; experiment: MIC, broth microdilution (CLSI); format: cell-based; conditions: E. cloacae NCTC 13406, 16-20 h, mode of three experiments
[3] = tested on: Escherichia coli ATCC 25922; experiment: MIC, broth microdilution (CLSI); format: cell-based; conditions: E. coli ATCC 25922, 16-20 h, mode of three experiments
[4] = tested on: Staphylococcus aureus ATCC 29213; experiment: MIC, broth microdilution (CLSI); format: cell-based; conditions: S. aureus ATCC 29213, 16-20 h, mode of three experiments
[5] = tested on: Klebsiella pneumoniae ATCC 700603; experiment: MIC, broth microdilution (CLSI); format: cell-based; conditions: K. pneumoniae ATCC 700603, 16-20 h, mode of three experiments
[6] = tested on: Acinetobacter baumannii NCTC 13420; experiment: MIC, broth microdilution (CLSI); format: cell-based; conditions: A. baumannii NCTC 13420, 16-20 h, mode of three experiments
[7] = tested on: HepG2 ATCC HB-8065; experiment: Human cell viability assay (CellTiter-Glo); format: cell-based; conditions: for IC50: Homo sapiens
Method: Compounds are assessed for potential non-specific cytotoxic effects against a human hepatic cell line (HepG2 ATCC HB-8065). HepG2 cells are seeded at 20,000 cells/well in 96-well microtitre plates in minimal essential medium (MEM) supplemented with a final concentration of 10% FBS and 1 mM sodium pyruvate. After 24 h compound dilutions are prepared in Dulbecco's minimum essential media (DMEM) supplemented with final concentrations of 0.001% FBS, 0.3% bovine albumin and 0.02% HEPES and added to cells. Compounds are tested in two-fold serial dilutions over a final concentration range of 1-128 μg/mL in a final DMSO concentration of 1% vol/vol. Chlorpromazine is used as a positive control. Cells are incubated with compound at 37° C. and 5% CO2 for a further 24 h, after which time the CellTiter-Glo reagent (Promega) is added. Luminescence is measured on a BMG Omega plate reader. Data are analysed using GraphPad Prism software to determine the concentration of compound that inhibits cell viability by fifty percent (IC50).

[8] = tested on: Haemophilus influenzae ATCC 49247; experiment: MIC, broth microdilution (CLSI); format: cell-based; conditions: H. influenzae ATCC 49247, 16-20 h, mode of three experiments
[9] = tested on: Streptococcus pneumoniae ATCC 49619; experiment: MIC, broth microdilution (CLSI); format: cell-based; conditions: S. pneumoniae ATCC 49619, 16-20 h, mode of three experiments
[10] = tested on: E. coli ATCC BAA-2452; experiment: MIC, broth microdilution (CLSI); format: cell-based, Escherichia coli; conditions: 16-20 h, mode of three experiments
[11] = tested on: E. coli MG1655 D87G; format: cell-based, Escherichia coli; conditions: compared to the isogenic parent strain E. coli MG1655; D87G mutation on DNA gyrase subunit GyrA
[12] = tested on: Acinetobacter baumannii ATCC 19606; experiment: MIC, broth microdilution (CLSI); format: cell-based; conditions: A. baumannii ATCC 19606, 16-20 h, mode of three experiments
[13] = tested on: E. coli NCTC 13476; experiment: MIC, broth microdilution (CLSI); format: cell-based, Escherichia coli; conditions: mode of three experiments
[14] = tested on: E. coli MG1655 S83L; format: cell-based, Escherichia coli; conditions: compared to the isogenic parent strain E. coli MG1655; S83L mutation on DNA gyrase subunit GyrA
[15] = tested on: E. coli MG1655 WT; experiment: MIC, broth microdilution (CLSI); format: cell-based, Escherichia coli; conditions: E. coli MG1655 WT; 16-20 h; mode of three experiments
[16] = Pseudomonas aeruginosa, ATCC27853, read-out: MIC
[17] = Enterobacter cloacae, NCTC13406, read-out: MIC
[18] = Escherichia coli, ATCC25922, read-out: MIC
[19] = Staphylococcus aureus, ATCC29213, read-out: MIC
[20] = Klebsiella pneumoniae, ATCC700603, read-out: MIC
[21] = Acinetobacter baumannii, NCTC13420, read-out: MIC
[22] = HepG2 cell viability, 24 h with compound, range 1-128 μg/mL
[23] = Haemophilus influenzae, ATCC49247, read-out: MIC
[24] = Streptococcus pneumoniae, ATCC49619, read-out: MIC
[25] = Acinetobacter baumannii, ATCC19606, read-out: MIC

MIC [1, 16]	MIC [2, 17]	MIC [3, 18]	MIC [4, 19]	MIC [5, 20]	MIC [6, 21]	IC50 [7, 22]	MIC [8, 23]	MIC [9, 24]	Compound	Fold increase in MIC against E. coli MG1655 D87G [11]	Fold increase in MIC against E. coli MG1655 S83L [14]	other results
1 to 10 µg/mL (≈ 2.1 to 21 µM)	< 1 µg/mL	< 1 µg/mL	< 1 µg/mL	1 to 10 µg/mL (≈ 2.1 to 21 µM)	< 1 µg/mL	> 100 µg/mL			O=C1COc2ccc(N3C[C@@H]4CN(CCCn5c(=O)ccc6ccccc65)C[C@@H]4OC3=O)nc2N1 (relative stereo) [Compound 4, rel-1-{3-[(4aS*,7aR*)-2-oxo-3-{3-oxo-2H,3H,4H-pyrido[3,2-b][1,4]oxazin-6-yl}-octahydropyrrolo[3,4-e][1,3]oxazin-6-yl]propyl}-1,2-dihydroquinolin-2-one]			
10 to 100 µg/mL (≈ 19.1 to 191 µM)	10 to 100 µg/mL (≈ 19.1 to 191 µM)	10 to 100 µg/mL (≈ 19.1 to 191 µM)	< 1 µg/mL	> 100 µg/mL	> 100 µg/mL	> 100 µg/mL	1 to 10 µg/mL (≈ 1.91 to 19.1 µM)	1 to 10 µg/mL (≈ 1.91 to 19.1 µM)	O=C1COc2ccc(N3C[C@H]4CN(CCn5c(=O)ccc6ccc(OCCO)nc65)C[C@@H]4OC3=O)nc2N1 (relative stereo) [Compound 5]			
10 to 100 µg/mL (≈ 18.7 to 187 µM)	> 100 µg/mL	10 to 100 µg/mL (≈ 18.7 to 187 µM)	1 to 10 µg/mL (≈ 1.87 to 18.7 µM)	> 100 µg/mL	> 100 µg/mL	> 100 µg/mL	> 100 µg/mL	1 to 10 µg/mL (≈ 1.87 to 18.7 µM)	NCCCOc1ccc2ccc(=O)n(CCN3C[C@@H]4CN(c5ccc6c(n5)NC(=O)CO6)C(=O)O[C@H]4C3)c2n1 (relative stereo) [Compound 8]			
									N#Cc1ccc2ccc(=O)n(CCN3C[C@H]4CN(c5ccc6c(n5)NC(=O)CO6)C(=O)O[C@H]4C3)c2c1 (relative stereo) [Compound 10, rel-1-{2-[(4aS*,7aR*-2-oxo-3-{3-oxo-2H,3H,4H-pyrido[3,2-b][1,4]oxazin-6-yl}-octahydropyrrolo[3,4-e][1,3]oxazin-6-yl]ethyl}-2-oxo-1,2-dihydroquinoline-7-carbonitrile]	1 fold	1 fold	MIC [1]: B (a MIC of from 1 to 10 is assigned the letter B); MIC [2]: A (an MIC (in μg/mL) of less or equal to 1 is assigned the letter A); MIC [10]: A (an MIC (in μg/mL) of less or equal to 1 is assigned the letter A); MIC [3]: A (an MIC (in μg/mL) of less or equal to 1 is assigned the letter A); MIC [12]: A (an MIC (in μg/mL) of less or equal to 1 is assigned the letter A); MIC [8]: A (an MIC (in μg/mL) of less or equal to 1 is assigned the letter A); MIC [9]: A (an MIC (in μg/mL) of less or equal to 1 is assigned the letter A); MIC ([13]; 16-20 h): B (a MIC of from 1 to 10 is assigned the letter B); MIC [4]: A (an MIC (in μg/mL) of less or equal to 1 is assigned the letter A); MIC [5]: B (a MIC of from 1 to 10 is assigned the letter B); MIC [6]: B (a MIC of from 1 to 10 is assigned the letter B); toxicity against HepG2 human hepatic cell line (in words) [7]: no detectable toxicity; IC50 HepG2 [7, 22]: A (an IC50 of over 100 is assigned the letter A); MIC [15]: A (an MIC (in μg/mL) of less or equal to 1 is assigned the letter A)
10 to 100 µg/mL (≈ 20.3 to 203 µM)	10 to 100 µg/mL (≈ 20.3 to 203 µM)		< 1 µg/mL	10 to 100 µg/mL (≈ 20.3 to 203 µM)	10 to 100 µg/mL (≈ 20.3 to 203 µM)	1 to 10 µg/mL (≈ 2.03 to 20.3 µM)	1 to 10 µg/mL (≈ 2.03 to 20.3 µM)	1 to 10 µg/mL (≈ 2.03 to 20.3 µM)	COc1ncc2ccc(=O)n(CCN3C[C@H]4CN(c5ccc6c(n5)NC(=O)CO6)C(=O)O[C@@H]4C3)c2n1 (relative stereo) [Compound 13, rel-(4aS*,7aR*-6-(2-{2-methoxy-7-oxo-7H,8H-pyrido[2,3-d]pyrimidin-8-yl}ethyl)-3-{3-oxo-2H,3H,4H-pyrido[3,2-b][1,4]oxazin-6-yl}-octahydropyrrolo[3,4-e][1,3]oxazin-2-one]			
10 to 100 µg/mL (≈ 18.2 to 182 µM)	> 100 µg/mL	1 to 10 µg/mL (≈ 1.82 to 18.2 µM)	1 to 10 µg/mL (≈ 1.82 to 18.2 µM)	> 100 µg/mL	> 100 µg/mL	> 100 µg/mL	> 100 µg/mL	1 to 10 µg/mL (≈ 1.82 to 18.2 µM)	NCCCOc1ccc2ccc(=O)n(CCCN3CC4CN(c5ccc6c(n5)NC(=O)CO6)C(=O)OC4C3)c2n1 (stereo not drawn) [Compound 6, rel-1-{3-[(4aS*,7aR*)-2-oxo-3-{3-oxo-2H,3H,4H-pyrido[3,2-b][1,4]oxazin-6-yl}-octahydropyrrolo[3,4-e][1,3]oxazin-6-yl]propyl}-7-(3-aminopropoxy)-1,2-dihydro-1,8-naphthyridin-2-one]			
10 to 100 µg/mL (≈ 19.7 to 197 µM)	1 to 10 µg/mL (≈ 1.97 to 19.7 µM)	1 to 10 µg/mL (≈ 1.97 to 19.7 µM)	< 1 µg/mL	10 to 100 µg/mL (≈ 19.7 to 197 µM)	10 to 100 µg/mL (≈ 19.7 to 197 µM)	10 to 100 µg/mL (≈ 19.7 to 197 µM)	< 1 µg/mL	< 1 µg/mL	COc1ncc2ccc(=O)n(CCCN3CC4CN(c5ccc6c(n5)NC(=O)CO6)C(=O)OC4C3)c2n1 (stereo not drawn) [Compound 11, rel-(4aS*,7aR*)-6-(3-{2-methoxy-7-oxo-7H,8H-pyrido[2,3-d]pyrimidin-8-yl}propyl)-3-{3-oxo-2H,3H,4H-pyrido[3,2-b][1,4]oxazin-6-yl}-octahydropyrrolo[3,4-e][1,3]oxazin-2-one]			toxicity against HepG2 human hepatic cell line (in words) ([7]; summary of Table 3): acceptable level of hepatic toxicity
10 to 100 µg/mL (≈ 20.3 to 203 µM)	1 to 10 µg/mL (≈ 2.03 to 20.3 µM)	< 1 µg/mL	< 1 µg/mL	10 to 100 µg/mL (≈ 20.3 to 203 µM)	< 1 µg/mL	> 100 µg/mL	< 1 µg/mL	< 1 µg/mL	COc1ccc2ccc(=O)n(CCN3CC4CN(c5ccc6c(n5)NC(=O)CO6)C(=O)OC4C3)c2n1 (stereo not drawn) [Compound 16, rel-1-{2-[(4aR*,7aR*)-2-oxo-3-{3-oxo-2H,3H,4H-pyrido[3,2-b][1,4]oxazin-6-yl}-octahydropyrrolo[3,4-e][1,3]oxazin-6-yl]ethyl}-7-methoxy-1,2-dihydro-1,8-naphthyridin-2-one]			MIC [12, 25]: < 1 µg/mL
									C[C@H]1COc2c(N3CCN(C)CC3)c(F)cc3c(=O)c(C(=O)O)cn1c23 [LEV, levofloxacin, reference compound]	8 fold	8 fold	

Compound	MIC [1, 16]	MIC [2, 17]	MIC [3, 18]	MIC [4, 19]	MIC [5, 20]	MIC [6, 21]	IC50 [7, 22]	MIC [8, 23]	MIC [9, 24]	Fold increase in MIC against E. coli MG1655 D87G [11]	Fold increase in MIC against E. coli MG1655 S83L [14]	other results
N#Cc1ccc2ccc(=O)n(CCCN3C[C@H]4CN(c5ccc6c(n5)NC(=O)CO6)C(=O)O[C@@H]4C3)c2c1 (relative stereo) [Compound 14, rel-1-{3-[(4aS*,7aR*)-2-oxo-3-{3-oxo-2H,3H,4H-pyrido[3,2-b]1,4]oxazin-6-yl}-octahydropyrrolo[3,4-e][1,3]oxazin-6-yl]propyl}-2-oxo-1,2-dihydroquinoline-7-carbonitrile]	1 to 10 µg/mL (≈ 2 to 20 µM)	1 to 10 µg/mL (≈ 2 to 20 µM)	< 1 µg/mL	< 1 µg/mL	1 to 10 µg/mL (≈ 2 to 20 µM)	< 1 µg/mL	10 to 100 µg/mL (≈ 20 to 200 µM)	< 1 µg/mL	< 1 µg/mL	2 fold	4 fold	MIC ([10]; Escherichia coli, read-out: MIC): < 1 µg/mL; MIC [12, 25]: 1 to 10 µg/mL (≈ 2 to 20 µM); MIC ([13]; Escherichia coli, NCTC13476, 16-20 h, read-out: MIC): 1 to 10 µg/mL (≈ 2 to 20 µM); toxicity against HepG2 human hepatic cell line (in words) ([7]; summary of Table 3): acceptable level of hepatic toxicity
